{
  "source": "paper PMC10514301",
  "about": "(Signal Transduction and Targeted Therapy, 2023)",
  "key": {"HCoV-OC43 [1]": {"tested_on": "HCoV-OC43", "experiment": "Median effect plots of individual drugs against HCoV-OC43 in RD cells", "format": "cell-based"}, "HCoV-OC43 [2]": {"tested_on": "HCoV-OC43", "experiment": "Antiviral activity against HCoV-OC43 in RD cells (qRT-PCR)", "format": "cell-based", "conditions": "Betacoronavirus 1, OC43, RD, 48 h, read-out: EC50 mean ± sd, RD, OC43"}, "HCoV-OC43 [3]": {"tested_on": "HCoV-OC43", "experiment": "Antiviral activity against HCoV-OC43 in Huh-7 cells (qRT-PCR)", "format": "cell-based", "conditions": "Betacoronavirus 1, OC43, Huh-7, 48 h, read-out: EC50 mean ± sd, Huh-7, OC43"}, "HCoV-229E [4]": {"tested_on": "HCoV-229E", "experiment": "Antiviral activity against HCoV-229E in Huh-7 cells (qRT-PCR)", "format": "cell-based", "conditions": "Human coronavirus 229E, Huh-7, 48 h, read-out: EC50 mean ± sd, Huh-7, 229E"}, "HCoV-229E [5]": {"tested_on": "HCoV-229E", "experiment": "Antiviral activity against HCoV-229E in MRC5 cells (qRT-PCR)", "format": "cell-based", "conditions": "Human coronavirus 229E, MRC5, 48 h, read-out: EC50 mean ± sd, MRC5, 229E"}, "HCoV-OC43 [6]": {"tested_on": "HCoV-OC43", "experiment": "In vivo efficacy against HCoV-OC43 in suckling mice", "design": "species or system suckling Balb/c mice"}, "[7]": {"experiment": "Plasma pharmacokinetics after oral administration in C57BL/6J mice", "conditions": "for decrease of plasma Cmax in the VV116-nirmatrelvir combination compared with the individual study / decrease of plasma exposure in the VV116-nirmatrelvir combination compared with the individual study: oral VV116 + nirmatrelvir + ritonavir 50 + 100 + 50 mg/kg", "description": "The PK studies were conducted at Suzhou HQ Bioscience Co., Ltd. Eighteen C57BL/6J mice (N = 6 for each group, male) were randomly divided into three groups, and fasted for 12 h before dosing. […] The vehicle for oral administration of the test compounds was 5% DMSO + 5% Solutol HS-15 + 5% PEG400 + 85% Saline. Blood sample (70 μL) was collected from the orbit of the first three mice in each group at 0.25, 1.0, 4.0, and 8.0 and the last three mice in each group at 0.5, 2.0, 6.0, and 24 h post-dosing. The sample was taken into EDTA-K2 tubes, and centrifuged at 11,000 rpm for 5 min. The plasma was separated and frozen in a refrigerator at −70 °C for testing. The operation was conducted under an ice water bath. The concentration of analyte in plasma was determined by LC–MS/MS."}, "Cytotoxicity in RD cells": {"experiment": "Cytotoxicity in RD cells", "format": "cell-based", "conditions": "human"}, "[8]": {"conditions": "Betacoronavirus 1, read-out: IC50 (drug concentration that inhibit 50% viral replication), HCoV-OC43, RD cells, MOI 0.1, 48 hpi, median effect plot"}, "[9]": {"conditions": "Betacoronavirus 1, OC43, RD, read-out: IC50 (drug concentration that inhibit 50% viral replication)"}, "[10]": {"conditions": "male, C57BL/6J, mouse, plasma, po, 50 mg/kg"}},
  "note": "Values joined by “and” are separate entries in the source; they are usually repeats but may differ in a detail not shown here. Equal entries are not always repeated. Where two headings read alike, the source gives them in different places.",
  "data": [
    {"molecule": "CC(C)(C)NC(=O)N[C@H](C(=O)N1C[C@H]2[C@@H]([C@H]1C(=O)NC(CC1CCC1)C(=O)C(N)=O)C2(C)C)C(C)(C)C", "note": "(some centres unmarked) [Boceprevir, boceprevir]", "values": [
      {"measurement": "IC50", "setting": "HCoV-OC43 [1]; [8]", "result": 26900, "unit": "nM"},
      {"measurement": "slope steepness (m) of the dose-response curve", "setting": "HCoV-OC43 [1]; OC43", "result": 11.2}
    ]},
    {"molecule": "N#C[C@@]1(c2ccc3c(N)ncnn23)O[C@H](CO)[C@@H](O)[C@H]1O", "note": "[GS-441524]", "values": [
      {"measurement": "EC50", "setting": "HCoV-OC43 [2]", "result": "460 ± 79", "unit": "nM"},
      {"measurement": "EC50", "setting": "HCoV-OC43 [3]", "result": "1400 ± 55", "unit": "nM"},
      {"measurement": "EC50", "setting": "HCoV-229E [4]", "result": "560 ± 82", "unit": "nM"},
      {"measurement": "EC50", "setting": "HCoV-229E [5]", "result": "30 ± 21", "unit": "nM"}
    ]},
    {"molecule": "Cc1cccc(C)c1OCC(=O)N[C@@H](Cc1ccccc1)[C@@H](O)C[C@H](Cc1ccccc1)NC(=O)[C@H](C(C)C)N1CCCNC1=O", "note": "[Lopinavir, lopinavir]", "values": [
      {"measurement": "IC50", "setting": "HCoV-OC43 [1]; [8]", "result": 1440, "unit": "nM"},
      {"measurement": "slope steepness (m) of the dose-response curve", "setting": "HCoV-OC43 [1]; OC43", "result": 1.94}
    ]},
    {"molecule": "O=c1nc(NO)ccn1[C@@H]1O[C@H](CO)[C@@H](O)[C@H]1O", "note": "[NHC, β-d-N4-hydroxycytidine]", "values": [
      {"measurement": "slope steepness (m) of the dose-response curve", "setting": "HCoV-OC43 [1]; HCoV-OC43, RD cells, MOI 0.1, 48 hpi, median effect plot", "result": 2.80},
      {"measurement": "IC50", "setting": "HCoV-OC43 [1]; read-out: IC50 (drug concentration that inhibit 50% viral replication), HCoV-OC43, RD cells, MOI 0.1, 48 hpi, median effect plot", "result": 5680, "unit": "nM"}
    ]},
    {"molecule": "CC(C)(C)[C@H](NC(=O)C(F)(F)F)C(=O)N1C[C@H]2[C@@H]([C@H]1C(=O)N[C@H](C#N)C[C@@H]1CCNC1=O)C2(C)C", "note": "[Nirmatrelvir, nirmatrelvir]", "values": [
      {"measurement": "IC50", "setting": "HCoV-OC43 [1]; [9]", "result": 121, "unit": "nM"},
      {"measurement": "slope steepness (m) of the dose-response curve", "setting": "HCoV-OC43 [1]; OC43", "result": 4.49},
      {"measurement": "viral loads (titers, immunoplaque assay) in organs", "setting": "HCoV-OC43 [6]; VV116 50 mpk, nirmatrelvir 10 and 20 mpk with ritonavir, the two combinations", "result": "less than the limit of detection (LOD)"},
      {"measurement": "inflammation (cytokine gene expression) in the brain", "setting": "HCoV-OC43 [6]; VV116 50 mpk, nirmatrelvir 10 mpk, 25 mpk", "result": "dramatically reduced inflammation"},
      {"measurement": "lung histopathology (hematoxylin and eosin)", "setting": "HCoV-OC43 [6]; VV116 50 mpk, nirmatrelvir 10 mpk, 25 mpk, Combo 1, Combo 2", "result": "significantly improved"},
      {"measurement": "inflammation suppression (cytokine gene expression), especially IL-6 in the lungs", "setting": "HCoV-OC43 [6]; individual VV116 and nirmatrelvir treatments versus Combo 1 and Combo 2", "result": "limited inflammation suppression"},
      {"measurement": "viral copies in the brain", "setting": "HCoV-OC43 [6]; oral once a day, VV116 25 and 50 mpk, nirmatrelvir 25 mpk with ritonavir 50 mpk", "result": "almost completely cleared"},
      {"measurement": "decrease of plasma Cmax in the VV116-nirmatrelvir combination compared with the individual study", "setting": "[7]", "result": 12.5, "unit": "%"},
      {"measurement": "decrease of plasma exposure in the VV116-nirmatrelvir combination compared with the individual study", "setting": "[7]", "result": 19.8, "unit": "%"}
    ]},
    {"molecule": "Cc1cnc(C(=O)N[C@H]2CCCCC/C=C\\[C@@H]3C[C@@]3(C(=O)NS(=O)(=O)C3CC3)NC(=O)[C@@H]3C[C@@H](Oc4nc5ccccc5c5ccccc45)CN3C2=O)cn1", "note": "[Paritaprevir, paritaprevir]", "values": [
      {"measurement": "IC50", "setting": "HCoV-OC43 [1]; [8]", "result": 2500, "unit": "nM"},
      {"measurement": "slope steepness (m) of the dose-response curve", "setting": "HCoV-OC43 [1]; OC43", "result": 1.55}
    ]},
    {"molecule": "CCC(CC)COC(=O)[C@H](C)N[P@](=O)(OC[C@H]1O[C@@](C#N)(c2ccc3c(N)ncnn23)[C@H](O)[C@@H]1O)Oc1ccccc1", "note": "[RDV, remdesivir]", "values": [
      {"measurement": "EC50", "setting": "HCoV-OC43 [2]", "result": "21 ± 35", "unit": "nM"},
      {"measurement": "EC50", "setting": "HCoV-229E [4]", "result": 41, "unit": "nM"},
      {"measurement": "CC50", "setting": "Cytotoxicity in RD cells", "result": 1570, "unit": "nM"},
      {"measurement": "IC50", "setting": "HCoV-OC43 [1]; [9]", "result": 20.2, "unit": "nM"},
      {"measurement": "slope steepness (m) of the dose-response curve", "setting": "HCoV-OC43 [1]; OC43", "result": 2.40}
    ]},
    {"molecule": "NC(=O)c1ncn([C@@H]2O[C@H](CO)[C@@H](O)[C@H]2O)n1", "note": "[Ribavirin, ribavirin]", "values": [
      {"measurement": "IC50", "setting": "HCoV-OC43 [1]; [8]", "result": 49500, "unit": "nM"},
      {"measurement": "slope steepness (m) of the dose-response curve", "setting": "HCoV-OC43 [1]; OC43", "result": 2.19}
    ]},
    {"molecule": "COc1ccc2c(O[C@@H]3C[C@H]4C(=O)N[C@]5(C(=O)NS(=O)(=O)C6CC6)C[C@H]5/C=C\\CCCCN(C)C(=O)[C@@H]4C3)cc(-c3nc(C(C)C)cs3)nc2c1C", "note": "[Simeprevir, simeprevir]", "values": [
      {"measurement": "IC50", "setting": "HCoV-OC43 [1]; [8]", "result": 2220, "unit": "nM"},
      {"measurement": "slope steepness (m) of the dose-response curve", "setting": "HCoV-OC43 [1]; OC43", "result": 2.18}
    ]},
    {"molecule": "[2H]c1cc([C@]2(C#N)O[C@H](CO)[C@@H](O)[C@H]2O)n2ncnc(N)c12", "note": "[X1]", "values": [
      {"measurement": "EC50", "setting": "HCoV-OC43 [2]", "result": "800 ± 420", "unit": "nM"},
      {"measurement": "EC50", "setting": "HCoV-OC43 [3]", "result": "1100 ± 61", "unit": "nM"},
      {"measurement": "EC50", "setting": "HCoV-229E [4]", "result": "570 ± 70", "unit": "nM"},
      {"measurement": "EC50", "setting": "HCoV-229E [5]", "result": "60 ± 160", "unit": "nM"},
      {"measurement": "AUC(0-t)", "setting": "[7]; [10]", "result": 19500, "unit": "ng·h/mL"},
      {"measurement": "Cmax", "setting": "[7]; [10]", "result": "10700 ng/mL and 36.6 µM"},
      {"measurement": "decrease of plasma Cmax in the VV116-nirmatrelvir combination compared with the individual study", "setting": "[7]", "result": 20.3, "unit": "%"},
      {"measurement": "decrease of plasma exposure in the VV116-nirmatrelvir combination compared with the individual study", "setting": "[7]", "result": 13.5, "unit": "%"}
    ]}
  ]
}
